# Test results: patent US20260193294A1, “POLYPEPTIDE INHIBITOR, AND PREPARATION METHOD THEREFOR AND USE THEREOF” (SHANGHAI HANSOH BIOMEDICAL CO., LTD., priority 2022, published 2026)
# Positions of bridges follow the written chain, without caps; N, C: chain ends. Non-standard residues stand in square brackets, D forms with d. Residues, ends and D or L forms follow the SMILES beside them. *: point of attachment. X1 = CN(CCNC(=O)CCOCCOCC[N+](C)(C)CCNC(=O)COCCOCCNC(=O)COCCOCCNC(=O)CC[C@H](NC(=O)CCCCCCCCCCCCCCC(=O)O)C(=O)O)*; Trp(7-Me) = Cc1cccc2c(C[C@H](N)C(=O)O)c[nH]c12; 2Nal = N[C@@H](Cc1ccc2ccccc2c1)C(=O)O; AEF = NCCOc1ccc(C[C@H](N)C(=O)O)cc1; 3Pal = N[C@@H](Cc1cccnc1)C(=O)O; Pen = CC(C)(S)[C@H](N)C(=O)O; Thp = NC1(C(=O)O)CCOCC1; Sar = CNCC(=O)O
# How the values were obtained:
# [1] = Pharmacokinetic determination in rats (IV); conditions: male, SD, rat, plasma, 1 mg/kg
# Description: (§11) SD rats were used as test animals to study the pharmacokinetic behavior of the compounds of the examples in the rats (plasma) after oral or IV administration.
# Preparation of intravenous drug: PBS
# (§12) The compounds of the examples were weighed and dissolved in this solution, vortexed, ultrasonicated for 5 min, and filtered through a 0.22 μm filter membrane to obtain colorless clear solutions with a concentration of 0.2 mg/mL.
# (§13) 3 SD rats/group, male were fasted overnight and then respectively administered IV at a dose of 1 mg/kg and a volume of 5 mL/kg.
# (§14) • Before administration and at 0.083 h, 0.25 h, 0.5 h, 1.0 h, 2.0 h, 4.0 h, 6.0 h, 8.0 h, and 24.0 h after administration (IV), 0.2 mL of blood was collected from the jugular vein, placed in an EDTA-2K test tube, and centrifuged at 6000 rpm for 6 min at 4° C. to separate plasma, which was stored at −20° C.; and the rats were fed 4 h after administration.
# (§15) 1) Acetonitrile (200 μL) was added to the plasma sample (50 μL) for precipitation, and the mixture was mixed and centrifuged at 4500 rpm for 15 min.
# (§16) 2) The treated supernatant solution was taken and subjected to LC/MS/MS to analyze the concentrations of the test compounds. LC/MS/MS analysis instrument: AB Sciex Triple Quad 6500+.
# (§17) • Liquid phase conditions: Shimadzu LC-30AD pump • Chromatographic column: HALO 90A PFP 2.7 μm 2.1×30 mm, mobile phase: liquid A: 5% acetonitrile aqueous solution (0.1% formic acid), and liquid B: an aqueous solution of 95% acetonitrile (0.1% formic acid) • Flow rate: 0.6 mL/min • Elution time: 0-2.0 min, the eluent was as follows:
# (§18) The main pharmacokinetic parameters were calculated using WinNonlin 8.1.
# [2] = tested on: IL23-induced rat otitis model; assay: In vivo pharmacodynamics in IL23-induced rat otitis model (ear thickening); design: species or system SD rats; conditions: 10 mg/kg, gavage
# Text: To evaluate the in vivo efficacy of the compounds in an IL23-induced rat otitis model.
# SD rats, 6-8 weeks old, male, purchased from Jiangsu GemPharmatech Co., Ltd.
# • a. […]
# [3] = Pharmacokinetic determination in beagle dogs (IV); conditions: male, dog, plasma, 0.2 mg/kg
# Description: Beagle dogs were used as test animals to study the pharmacokinetic behavior of the compounds of the examples in the rats (plasma) after IV administration.
# 3 beagle dogs/group, male, from Yizheng Anlimao Biotechnology Co., Ltd.
# The compounds of the examples were weighed and dissolved in this solution, vortexed, ultrasonicated for 5 min, and filtered through a 0.22 μm filter membrane to obtain colorless clear solutions with a concentration of 0.1 mg/mL.
# 3 beagle dogs/group, male were fasted overnight and then respectively administered IV at a dose of 0.2 mg/kg and a volume of 2 mL/kg.
# 1) Acetonitrile (200 μL) was added to the plasma sample (50 L) for precipitation, and the mixture was mixed and centrifuged at 4500 rpm for 15 min.
# as §16
# Premier Peptide CSH C18 130A 1.7 μm 2.1*100 mm Column, mobile phase: liquid A: 5% acetonitrile aqueous solution (0.1% formic acid), and liquid B: an aqueous solution of 95% acetonitrile (0.1% formic acid) • Flow rate: 0.6 mL/min • Elution time: 0-2.0 min, the eluent was as follows:
# as §18
# in vitro = in vitro ADME; conditions: plasma
# Description: (§1) To study the stability of the compounds of the examples in the plasmas of mice, rats, dogs and humans.
# (§2) Preparation of plasma: Animal or human whole blood was collected, then put into a test tube containing an anticoagulant, and centrifuged at 3500 rpm for 10 min, and the upper pale yellow plasma was collected; • working solution of 10 μM test compound: a stock solution was prepared with DMSO, and the working solution was prepared with 100 mM phosphate buffer; • working solution of 10 μM positive control: • procaine: 2.36 mg of procaine was weighed and diluted into a 10 mM stock solution with 1 mL of DMSO. 10 μL of the 10 mM stock solution was pipetted into 1 mL of 100 mM phosphate buffer, such that the final concentration was 100 μM; and • enalapril: 4.93 mg of enalapril was weighed and diluted into a 10 mM stock solution with 1 mL of DMSO; and 10 μL of the 10 mM stock solution was pipetted into 1 mL of 100 mM phosphate buffer, such that the final concentration was 100 μM.
# (§3) In a 96-well plate, 285 μL of plasma and 15 μL of 10 μM compound (test compound, and positive control) were successively added and incubated at 37° C.
# (§4) 40 μL was taken at 0, 15, 30, 60, 90, and 120 min (sampling points could be fine-tuned), respectively, and 160 μL of an acetonitrile stop solution containing an internal standard was added.
# (§5) After centrifugation (3500 rpm, 10 min), 50 μL of the supernatant was taken, diluted by adding 50 μL of DDH2O, and then injected for LC-MS/MS.
# (§6) • Instrument: Shimadzu LC-20 AD • Chromatographic column: Phenomenex Gemiu® C18 (50*4.6 mm, 5 μm particle size) • Mobile phase: A: acetonitrile, B: 0.1% formic acid solution • Elution gradient: […]: 5% A→95% A, 2.0-2.1 min: […] • Flow rate: 0.8 mL/min • Run time: 5.0 min • Injection volume: 5 μL
# (§7) • Instrument: API4000 liquid chromatography mass spectrometer, AB, US • Ion source: electrospray ionization source (ESI) • Drying gas: N2, temperature 500° C. • Electrospray voltage: 5500V • Detection mode: positive ion detection • Scan mode: multi reaction monitoring (MRM) mode • Scan time: 0.1 s
# (§8) All calculations were carried out using Microsoft Excel. The peak area ratio was determined by an extracted ion chromatogram.
# (§9) The residual percentage of the compound at each time point was calculated by the following equation: Residual percentage at t hours (%)=peak area ratio at t hours/peak area ratio at 0 hour×100%, in which the peak area ratio at t hr was the peak area ratio of the […] at t min; and • the slope value k was determined by linear regression on the natural logarithm of the curve of the residual percentage of the parent drug versus the incubation time.
# (§10) In vitro half-life (in vitro t1/2) was determined by the slope value: […]
# in vivo = conditions: male, SD, rat, iv, 1 mg/kg
# Description: as §11
# Preparation of intravenous drug: PBS
# as §12, §13, §14, §15, §16, §17, §18
# [4] = tested on: activation of STAT3 phosphorylation by hIL23 in DB cells; assay: Blocking the activation of STAT3 phosphorylation by hIL23 in DB cells (p-STAT3 ELISA); assay type: cell-based, Human; conditions: DB cells stimulated by rhIL-23 0.5 nM, half an hour; read-out: pStat3 IC50
# Description: To determine the inhibitory activity of the compounds of the present disclosure on the activation of STAT3 phosphorylation by hIL23 in DB cells
# The compounds produced above were added to DB (ATCC Cat #CRL-2289) cells to inhibit the signal transduction of rhIL-23 cytokine. The screening of compounds was carried out by a multi-well plate (suitable for ELISA assay). Generally, in the presence of some of the above compounds of the present disclosure, 6.25×10^6 cells/ml of DB cells were stimulated by rhIL-23 (0.5 nM, R&D SYSTEMS) in RPMI medium (Invitrogen) containing 10% of FBS, and after half an hour, lysis was carried out on ice using 50 μL of 2×lysis buffer (CST). The content of p-STAT3 in the lysate was determined by PathScan Phospho-Stat3 (Tyr705) Sandwich ELISA Kit (CST Cat #7300C), so as to calculate the activity of the compounds of the present disclosure in blocking rhIL23 signal transduction in DB cells.
# The inhibition rate was calculated as follows: […]
# By using log (inhibitor) vs. response—Variable slope (four parameters) in Graphpad, the data of ELISA experiment results were subjected to non-linear regression fitting to fit a curve and obtain the IC50 value.
# [5] = Stability in plasma (human); assay type: in vitro ADME; conditions: human, plasma
# Description: as §1, §2, §3, §4, §5, §6, §7, §8, §9, §10
compound,measurement,setting,value
"CC(=O)NCCCC[C@@H]1NC(=O)[C@H](Cc2c[nH]c3c(C)cccc23)NC(=O)[C@H]([C@@H](C)O)NC(=O)[C@H](CC(N)=O)NC(=O)[C@@H](NC(C)=O)C(C)(C)SSC(C)(C)[C@@H](C(=O)N[C@@H](Cc2ccc(OCCN)cc2)C(=O)N[C@@H](Cc2ccc3ccccc3c2)C(=O)NC2(C(=O)N[C@@H](CCC(=O)O)C(=O)N[C@@H](CC(N)=O)C(=O)N[C@@H](Cc3cccnc3)C(=O)N(C)CC(N)=O)CCOCC2)NC1=O [PN-235, reference compound] (Ac-[Pen]NT[Trp(7-Me)]K(Ac)[Pen][AEF][2Nal][Thp]EN[3Pal][Sar]-NH2; disulfide 1-6 (inferred); N-terminus and C-terminus assumed)",AUC(0-inf),[1],2670 ng·h/mL
same,AUC(0-t),[1],2620 ng·h/mL
same,C0,[1],4290 ng/mL
same,MRT,[1],0.9 h
same,clearance,[1],6.2 mL/min/kg
same,half-life,[1],0.7 h
same,Inhibition rate on Day 4 (ear thickening),[2]; BID,55.35%
same,AUC(0-inf),[3],2030 ng·h/mL
same,AUC(0-t),[3],2020 ng·h/mL
same,C0,[3],1250 ng/mL
same,MRT,[3],3.1 h
same,clearance,[3],1.68 mL/min/kg
same,half-life,[3],4.1 h
CC(=O)NCCCC[C@@H]1NC(=O)[C@H](Cc2c[nH]c3c(C)cccc23)NC(=O)[C@H]([C@@H](C)O)NC(=O)[C@H](CC(N)=O)NC(=O)[C@@H](NC(C)=O)C(C)(C)SSC(C)(C)[C@@H](C(=O)N[C@@H](Cc2ccc(OCCN)cc2)C(=O)N[C@@H](Cc2ccc3ccccc3c2)C(=O)NC2(C(=O)N[C@@H](CCC(=O)O)C(=O)N[C@@H](CC(N)=O)C(=O)N[C@@H](Cc3cccnc3)C(=O)N(C)CCNC(=O)CCOCCOCC[N+](C)(C)CCNC(=O)COCCOCCNC(=O)COCCOCCNC(=O)CC[C@H](NC(=O)CCCCCCCCCCCCCCC(=O)O)C(=O)O)CCOCC2)NC1=O [Example 1] (Ac-[Pen]NT[Trp(7-Me)]K(Ac)[Pen][AEF][2Nal][Thp]EN[3Pal]-X1; disulfide 1-6),half-life at 0.5 μM,in vitro; dog,148 h
same,"remaining at 4 h, 0.5 µM",in vitro; dog,99.7%
same,half-life at 0.5 μM,in vitro; mouse,32 h
same,"remaining at 4 h, 0.5 µM",in vitro; mouse,93.8%
same,half-life at 0.5 μM,in vitro; rat,75.7 h
same,"remaining at 4 h, 0.5 µM",in vitro; rat,98.7%
same,half-life,in vivo,4.9 h
same,IC50,[4],25 pM
same,AUC(0-inf),[1],46700 ng·h/mL
same,AUC(0-t),[1],45400 ng·h/mL
same,C0,[1],10300 ng/mL
same,MRT,[1],6.1 h
same,clearance,[1],0.35 mL/min/kg
same,Inhibition rate on Day 4 (ear thickening),[2]; QD,51.22%
same,half-life at 0.5 μM,[5],64.6 h
same,"remaining at 4 h, 0.5 µM",[5],94.3%
